Data published in PubChem BioAssay (NCI).
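Each compound was tested at five concentrations against cells in 96-well plates for 48 hours. TGI: concentration producing complete growth inhibition.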

Legend:
Experiment in all cases: NCI anticancer screen, dose series, 48 h
[1] = system: NCI-H226 lung
[2] = system: SK-OV-3 ovarian
[3] = system: SK-MEL-5 melanoma
[4] = system: HCT-15 colon
[5] = system: HCT-116 colon
[6] = system: DU-145 prostate
[7] = system: NCI/ADR-RES ovarian
[8] = system: HCC-2998 colon
[9] = system: A498 renal
[10] = system: T-47D breast

| SMILES | TGI [1] | TGI [2] | TGI [3] | TGI [4] | TGI [5] | TGI [6] | TGI [7] | TGI [8] | TGI [9] | TGI [10] |
| --- | --- | --- | --- | --- | --- | --- | --- | --- | --- | --- |
| CN(C)c1ccc(-c2c(C#N)c(N)[nH]c(=S)c2C#N)cc1 | 92.2 µM | > 100 µM | > 100 µM | > 100 µM | > 100 µM | > 100 µM | > 100 µM | > 100 µM | 96.2 µM |  |
| Fc1c(F)c(C(F)(F)F)c(F)c(F)c1N/N=C\c1c[nH]c2ccccc12 |  | 12.9 µM | 4.04 µM | 12.8 µM | 14.5 µM | 15.8 µM | 5.84 µM | 4.19 µM | 15 µM | 18.7 µM |
| CC1=C/C(=N\OCC(=O)O)CC(c2ccc(C(C)C)cc2)C1 (centres undefined) |  | > 100 µM | 34.1 µM | 71.9 µM | > 100 µM | > 100 µM | 75.5 µM |  |  | > 100 µM |
| O=C1CSC2(CC(/C=C/c3ccccc3O)=NN2c2cccc(S(=O)(=O)O)c2)N1c1nc2ccccc2s1 (centres undefined) | > 100 µM |  | > 100 µM | > 100 µM | > 100 µM | 97.5 µM | > 100 µM | 52.6 µM | > 100 µM | 65.4 µM |
| CCOC(=O)c1cc(Sc2ccc(N)c(C(=O)OCC)c2)ccc1N | 44.7 µM | > 100 µM | > 100 µM | > 100 µM | > 100 µM | > 100 µM | > 100 µM |  | 72.1 µM | > 100 µM |
| CSC1=N[C@H](c2ccccc2)CS1 |  |  | > 100 µM | > 100 µM | > 100 µM | > 100 µM | > 100 µM | > 100 µM | > 100 µM | > 100 µM |
| CN(C)c1ccc(/C=C/C=C\C2=CC(=C\C=C/C=C3C=CC(=[N+](C)C)C=C3)/Sc3ccccc32)cc1 | > 100 µM | > 100 µM | > 100 µM | > 100 µM | > 100 µM |  |  |  | > 100 µM |  |
| COc1cc(/C=C/C(=O)c2sc(-n3nc(-c4ccccc4)cc3-c3ccccc3)nc2C)ccc1O | > 100 µM | > 100 µM | > 100 µM | > 100 µM |  |  |  | > 100 µM | > 100 µM |  |
| NCCCCNCCCN1CC1 | > 31.4 µM |  | 9.67 µM | > 100 µM | > 100 µM | > 29.6 µM |  | 97.1 µM | 1.84 µM | 3.46 µM |
| CC(=O)/C(=C\c1ccco1)C(=O)Nc1ccccc1 |  | > 100 µM | > 100 µM | > 100 µM | > 100 µM |  |  | > 100 µM |  |  |
| COc1cc2c(cc1OC)-c1[nH]c3ccc(C#N)cc3c1CC(=O)N2 | > 100 µM | > 100 µM | 28 µM | > 100 µM |  | > 100 µM | > 100 µM |  | > 100 µM | > 100 µM |
| Nc1ccn(C2CC(O)C(COP(O)(=S)OC3CC(n4ccc(N)nc4=O)OC3CO)O2)c(=O)n1 (centres undefined) |  |  | > 100 µM | > 100 µM | > 100 µM | > 100 µM | > 100 µM | > 100 µM |  | > 100 µM |
| CC1=C(C(=O)Nc2cccc3c2C(=O)NC3=O)CC(C(=O)Nc2cccc3c2C(=O)NC3=O)=C(C)N1 |  | > 100 µM | > 100 µM | > 100 µM | > 100 µM | > 100 µM |  | > 100 µM | > 100 µM | > 100 µM |
| Cc1c2cnccc2c(C)c2c1[nH]c1ccc(O)cc12 | > 10 µM | > 10 µM | > 10 µM | > 10 µM | 2.2 µM | 5.83 µM | 8.11 µM | > 10 µM |  | > 10 µM |
| NC1CC(=O)c2cc(Cl)sc21 (centres undefined) | > 100 µM | > 100 µM | > 100 µM | > 100 µM | > 100 µM | > 100 µM | > 100 µM |  |  | > 100 µM |
| C/C(CN1C(=O)c2ccccc2C1=O)=N\NS(=O)(=O)c1ccc(Br)cc1 | > 100 µM | > 100 µM | > 100 µM | > 100 µM | > 100 µM |  |  | > 100 µM | > 100 µM |  |
| COC(=O)N1C[C@@]2(C=CC3(CC2)OCCO3)c2ccccc21 |  | > 100 µM | > 100 µM | > 100 µM | > 100 µM | > 100 µM | 95.6 µM | > 100 µM | > 100 µM | > 100 µM |
| COc1cc(S(=O)(=O)Nc2ccc(-c3csc(N4C(=O)CSC4c4cccs4)n3)cc2)ccc1Cl (centres undefined) | 81.8 µM | > 100 µM | > 100 µM | > 100 µM | > 100 µM | 62 µM | > 100 µM | 30.7 µM | > 100 µM |  |
| O=C(O)c1c[nH]c2c(Sc3ccccc3)nccc2c1=O | > 100 µM | > 100 µM | > 100 µM | > 100 µM | > 100 µM | > 100 µM | > 100 µM |  | > 100 µM | > 100 µM |
| CCOC(=O)CSc1ccnc(=O)[nH]1 |  | > 100 µM | > 100 µM | > 100 µM | > 100 µM |  |  |  | > 100 µM |  |
| NC(=S)NNC(=O)/C(=C/c1ccc(/C=C(\NC(=O)c2ccccc2)C(=O)NNC(N)=S)cc1)NC(=O)c1ccccc1 | > 100 µM | > 100 µM | > 100 µM | > 100 µM | > 100 µM |  |  | > 100 µM | > 100 µM |  |
| O=C(NO)c1ccc([N+](=O)[O-])cc1 | > 100 µM | > 100 µM | > 100 µM | > 100 µM |  |  |  | > 100 µM | 85.4 µM |  |
| CCCCCCn1c(SCC)c2ccccc2c1-c1nc(F)nc(F)n1 | > 100 µM | > 100 µM | > 100 µM | > 100 µM | > 100 µM |  |  | > 100 µM |  |  |
| O=P(O)(OCC(O)O)OCC(O)O |  | > 100 µM | > 100 µM |  | > 100 µM |  |  | > 100 µM | > 100 µM |  |
| COc1ccc(/C=C2\OC(=O)C(Cl)=C2c2ccc(OC)cc2)cc1 |  | > 100 µM | > 100 µM | > 100 µM |  | > 100 µM |  |  | > 100 µM | > 100 µM |
| O=C1NC(N2CCOCC2)=N/C1=C\c1cccs1 | > 100 µM | > 100 µM | > 100 µM | > 100 µM | > 100 µM | > 100 µM | > 100 µM | > 100 µM |  | > 100 µM |
